Experimental data as given in patent US20160115540A1, “PRODRUGS AND DRUGS” (Biogen MA Inc., priority 2013, published 2016).
Where a name gives a salt, the structure may show the parent alone.

Test system: brain
Assay: Transcriptional profiling, multi-dosing regimen, naïve mice: brain
Assay type: in vivo
Conditions: for FC: BRAIN_HEMI, 100DMF-vs-Veh; for FC, Depp (1433836_PM_a_at): BrainHemi, multi-dosing; for Number of differentially expressed genes identified: Brain Hemi: Table 13: Naïve, Single Dose (so in the source), 12 h after last dosing
Procedure: In vivo, DMF is rapidly metabolized to monomethyl fumarate (MMF). […] Animals were exposed to CO2 and whole blood collected via cardiac puncture. Two 100 μl aliquots of whole blood were collected in 1.5 mL microcentrifuge tubes and snap frozen in liquid nitrogen. Peripheral (liver, spleen, kidney and jejunum) and CNS brain (cerebellum, hippocampus, striatum and cortex) tissues were harvested and snap frozen in liquid nitrogen, with special care taken to collect tissues of similar size and from the same location. All samples were stored at -80° C. until RNA extraction was conducted. For RNA preparation, frozen tissues were placed in 2 mL RNAse-free 96-well blocks with 1.5 mL QIAzol Lysis Reagent (QIAgen) and a 3.2 mm stainless steel bead (BioSpec Products, Bartlesville, Okla.). Tissues were disrupted for four cycles of 45 seconds in a Mini-Beadbeater (Biospec Products). RNA was extracted in chloroform and the aqueous phase was mixed with an equal volume of 70% ethanol. Extracted RNA was applied to RNeasy 96 plates and purified by the spin method according to the manufacturer's protocol (RNeasy 96 Universal Tissue Protocol, QIAgen, Hilden Germany). […] Two micrograms of biotin labeled […] probe were hybridized to Affymetrix GeneChip Affymetrix HT_MG-430_PM plate arrays with modified conditions as described in […] et al. Washing and staining of the hybridized arrays were completed as described in the GeneChip Expression analysis technical manual for HT plate arrays using the Genechip® Array Station (Affymetrix, Santa Clara, Calif.) with modifications as described in […] et al. The processed GeneChip® plate arrays were scanned using GeneTitan scanner (Affymetrix, Santa Clara, Calif.). Affymetrix scans were subject to quality control (QC) measures. These tests included a visual inspection of the distribution of raw signal intensities and an assessment of RNA degradation, relative log expression (RLE), and normalized unsealed standard error (NUSE). All sample scans that passed these QC metrics were included in the analysis. All CEL files were subjected to GC-content-based Robust Multi-array Average (GCRMA) normalization (version 2.20.0) (Irizarry R A, et al. Nucleic Acids Res 2003; 31:e15; Li C, et al. […] Stat Appl Genet Mol Biol 2004; 3:Article3). […] Springer Science+Business Media 2005). Changes in gene expression were studied by applying a linear modeling approach to fit gene expression levels according to the defined groups of samples (e.g. DMF-, MMF-, and Vehicle-treated animals) and Bayesian posterior error analysis as implemented by Smyth (Smyth G K. Stat Appl Genet Mol Biol 2004; 3:Article3). The comparisons considered included: DMF-vs-MMF, DMF-vs-Vehicle, and MMF-vs-Vehicle. […] Very few DEGs are observed in blood and tissues derived from the central nervous system (brain, cerebellum, cortex, striatum, and spinal cord).

COC(=O)/C=C/C(=O)OC [DMF, dimethyl fumarate]
FC (2310079F09Rik 1433201_PM_at): 2.00
FC (8430408G22Rik 1433836_PM_a_at): 1.77
FC, Depp (1433836_PM_a_at) (DMF-vs-MMF): 1.78
FC, Depp (1433836_PM_a_at) (DMF-vs-Vehicle): 1.77
FC (Pvrl3 1457257_PM_x_at): −1.69
Number of differentially expressed genes identified: Brain Hemi (100 mpk DMF-vs-90 mpk MMF): 8
Number of differentially expressed genes identified: Brain Hemi (100 mpk DMF-vs-Vehicle): 3
DEPP gene induction (mRNA) (brain, multi-dosing regimen, naïve mice): robustly induced
